Results published in ChEMBL document CHEMBL3044860, “13-Deoxyitol A, a new insecticidal isoryanodane diterpene from the seeds of Itoa orientalis” (2009).

Experiments:
Assay type in all cases: functional
Sogatella furcifera [1] = experiment: Antifeedant activity against fourth-instar nymph stage of Sogatella furcifera in tillering to booting period rice seedlings
Plutella xylostella [2] = experiment: Contact toxicity against third-instar larval stage of Plutella xylostella (diamondback moth) applied topically measured per insect
Spodoptera litura [3] = experiment: Contact toxicity against third-instar larval stage of Spodoptera litura applied topically measured per insect
Nilaparvata lugens [4] = experiment: Contact toxicity against macropterous female Nilaparvata lugens (brown planthopper) applied topically measured per insect
Sogatella furcifera [5] = experiment: Contact toxicity against macropterous female Sogatella furcifera applied topically measured per insect
Plutella xylostella [6] = experiment: Antifeedant activity against third-instar larval stage of Plutella xylostella (diamondback moth) in cabbage mustard leaves
Nilaparvata lugens [7] = experiment: Antifeedant activity against fourth-instar nymph stage of Nilaparvata lugens (brown planthopper) in tillering to booting period rice seedlings
Spodoptera litura [8] = experiment: Antifeedant activity against third-instar larval stage of Spodoptera litura in cabbage mustard leaves

CC(C)[C@@H]1[C@H](O)[C@H]2C(C)(CO)[C@@]3(O)CC[C@@H](C)[C@H]3[C@H]3OC[C@]1(C)[C@]32O (stereo not given in full) [13-DEOXYITOL A]
AFC50 (Sogatella furcifera [1]): 23.5 µg/mL
LD50 (Plutella xylostella [2]): 0.22 µg
LD50 (Spodoptera litura [3]): 0.22 µg
LD50 (Nilaparvata lugens [4]): >2 µg
LD50 (Sogatella furcifera [5]): >2 µg
AFC50 (Plutella xylostella [6]): 29.3 µg/mL
AFC50 (Nilaparvata lugens [7]): 38.9 µg/mL
AFC50 (Spodoptera litura [8]): 50.1 µg/mL

C/C=C(\C)C(=O)O[C@H]1C[C@@H](OC(C)=O)[C@@]2(C(=O)OC)CO[C@H]3[C@@H](O)[C@@](C)([C@]45O[C@@]4(C)[C@@H]4C[C@H]5O[C@@H]5OC=C[C@@]54O)[C@H]4[C@]1(CO[C@]4(O)C(=O)OC)[C@@H]32 [AZADIRACHTIN A]
AFC50 (Sogatella furcifera [1]): 7 µg/mL
AFC50 (Plutella xylostella [6]): 9.3 µg/mL
AFC50 (Nilaparvata lugens [7]): 7.5 µg/mL
AFC50 (Spodoptera litura [8]): 9.8 µg/mL

CC(C)[C@@]1(O)[C@H](O)[C@@H]2[C@@]3(O)[C@@H]4O[C@@](O)(C[C@@]2(C)[C@@]2(O)CC[C@@H](C)[C@@H]42)[C@]31C [ITOL A]
AFC50 (Sogatella furcifera [1]): 29.3 µg/mL
LD50 (Plutella xylostella [2]): 0.22 µg
LD50 (Spodoptera litura [3]): 0.22 µg
LD50 (Nilaparvata lugens [4]): >2 µg
LD50 (Sogatella furcifera [5]): >2 µg
AFC50 (Plutella xylostella [6]): 22.5 µg/mL
AFC50 (Nilaparvata lugens [7]): 34.8 µg/mL
AFC50 (Spodoptera litura [8]): 47.5 µg/mL
